Test results: patent publication US20260070922A1, “PYRAZOLE AND IMIDAZOLE DERIVATIVES AS DUAL OREXIN AND KAPPA-OPIOID RECEPTORS MODULATORS COMPOSITION, METHODS FOR TREATING NEUROLOGICAL AND PSYCHIATRIC DISORDERS” (HAGER BIOSCIENCES, LLC, priority 2022, published 2026)

Assays:
[1] = target: T1, human orexin-2 receptor (OX2R) (Homo sapiens, UniProt O43614); test: In vitro orexin antagonism assay: intracellular calcium measurement (FLIPR), orexin-A 3 nM as agonist; type: cell-based; settings: for inhibition at 1 µM: read-out: OX2R, % Inh. @ 1 uM; for IC50: first value of IC50/Kb cell; for Kb: second value of IC50/Kb cell
T1 construct: expressed in transfected cells; host or cells: CHO cells (G418 selection)
T1 sequence (O43614 1-444): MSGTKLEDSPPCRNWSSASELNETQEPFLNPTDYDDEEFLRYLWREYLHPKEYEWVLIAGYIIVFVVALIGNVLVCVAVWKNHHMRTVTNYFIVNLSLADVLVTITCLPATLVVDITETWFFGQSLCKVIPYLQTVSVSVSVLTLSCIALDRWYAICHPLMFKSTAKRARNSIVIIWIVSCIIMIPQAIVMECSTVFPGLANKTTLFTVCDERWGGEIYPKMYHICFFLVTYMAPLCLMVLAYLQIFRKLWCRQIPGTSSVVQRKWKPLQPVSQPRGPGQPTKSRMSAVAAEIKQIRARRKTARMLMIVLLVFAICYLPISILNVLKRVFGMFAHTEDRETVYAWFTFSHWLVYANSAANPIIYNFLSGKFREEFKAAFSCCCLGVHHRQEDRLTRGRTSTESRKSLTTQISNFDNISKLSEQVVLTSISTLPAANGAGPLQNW
Method: Antagonistic activities on both orexin receptors have been measured for each example compound using the following procedure:
(§1) In Vitro Orexin Antagonism Measurement Assay: Intracellular Calcium Measurements:
(§2) Chinese hamster ovary (CHO) cells expressing the human […] and the human orexin-2 receptor, respectively, are grown in culture medium (Ham F-12 with L-Glutamine) containing 300 μg/mL G418, 100 U/mL penicillin, 100 μg/mL streptomycin and 10% heat inactivated fetal calf serum (FCS). The cells are seeded at 20,000 cells/well into 384-well black clear bottom sterile plates (Greiner). The seeded plates are incubated overnight at 37° C. in 5% 002. Human orexin-A as an agonist is prepared as 1 mM stock solution in MeOH: water (1:1), diluted in HBSS containing 0.1% bovine serum albumin (BSA), NaHCO3: 0.375 g/L and 20 mM HEPES for use in the assay at a final concentration of 3 nM.
(§3) Antagonists are prepared as 10 mM stock solution in DMSO, then diluted in 384-well plates using DMSO followed by a transfer of the dilutions into in HBSS containing 0.1% bovine serum albumin (BSA), NaHCO3: 0.375 g/L and 20 mM HEPES. On the day of the assay, 50 μL of staining buffer (HBSS containing 1% FCS, 20 mM HEPES, NaHCO3: 0.375 g/L, 5 mM probenecid (Sigma) and 3 μM of the fluorescent calcium indicator fluo-4 AM (1 mM stock solution in DMSO, containing 10% pluronic) is added to each well. The 384-well cell-plates are incubated for 50 min at 37° C. in 5% CO2 followed by equilibration at RT for 30 min before measurement.
(§4) Within the Fluorescent Imaging Plate Reader (FLIPR Tetra, Molecular Devices), antagonists are added to the plate in a volume of 10 μL/well, incubated for 120 min and finally 10 μL/well of agonist is added. Fluorescence is measured for each well at 1 second intervals, and the height of each fluorescence peak is compared to the height of the fluorescence peak induced by 3 nM orexin-A with vehicle in place of antagonist. The IC50 value (the concentration of compound needed to inhibit 50% of the agonistic response) is determined and may be normalized using the obtained IC50 value of an on-plate reference compound. Optimized conditions were achieved by adjustment of pipetting speed and cell splitting regime. The calculated IC50values may fluctuate depending on the daily cellular assay performance. Fluctuations of this kind are known to those skilled in the art. In the case where IC50values have been determined several times for the same compound, the geometric mean has been given.

[2] = target: T2, Orexin type 1 (OX1R) receptor (Homo sapiens, UniProt O43613); test: as above; type: cell-based; settings: for inhibition at 1 µM: read-out: OX1R, % Inh. @ 1 uM; for IC50: first value of IC50/Kb cell; for Kb: second value of IC50/Kb cell
T2 construct: expressed in transfected cells; host or cells: CHO cells (G418 selection)
T2 sequence (O43613 1-425): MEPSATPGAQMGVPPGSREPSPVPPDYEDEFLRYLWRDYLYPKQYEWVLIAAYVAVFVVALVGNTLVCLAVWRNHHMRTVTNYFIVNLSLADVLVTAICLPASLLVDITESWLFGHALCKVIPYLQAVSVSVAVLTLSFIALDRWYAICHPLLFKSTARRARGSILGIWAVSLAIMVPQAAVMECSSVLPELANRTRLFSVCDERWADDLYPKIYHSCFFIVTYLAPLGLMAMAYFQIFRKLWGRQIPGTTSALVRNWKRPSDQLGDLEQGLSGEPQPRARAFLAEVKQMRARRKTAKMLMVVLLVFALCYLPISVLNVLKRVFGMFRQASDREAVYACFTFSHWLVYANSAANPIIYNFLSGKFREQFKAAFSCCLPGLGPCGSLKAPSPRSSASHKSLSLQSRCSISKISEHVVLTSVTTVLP
Method: as §1, §2, §3
as §4, with “art.” for “art. In the case where IC50values have been determined several times for the same compound, the geometric mean has been given.”

For O=C(c1c(-c2ccccc2)nn2c1COCC2)N1CCC[C@H]1Cn1ccc(-c2ccccn2)n1 [Example 76], the inhibition at 1 µM [1] was 25% and the inhibition at 1 µM [2] was 46%.

In the case of O=C(c1c(-c2ccccc2)nn2c1COCC2)N1CCC[C@H]1Cn1cc(-c2ccccn2)cn1 [Example 77], the inhibition at 1 µM [1] is reported as 23% and the inhibition at 1 µM [2] is reported as 22%.

Work on O=C(c1c(-c2ccccc2)nc2cc(C(F)(F)F)ccn12)N1CCC[C@H]1Cn1cc(-c2ccccn2)cn1 [Example 79] yielded an IC50 [1] of 77 nM, an inhibition at 1 µM [1] of 62% and a Kb [1] of 13 nM. The inhibition at 1 µM [2] was 43%.

Compound O=C(c1c(-c2ccccc2)nc2cc(C(F)(F)F)ccn12)N1CCC[C@H]1Cn1cc(-c2ccc(F)cn2)cn1 [Example 81] has an IC50 [1] of 70 nM, an inhibition at 1 µM [1] of 63% and a Kb [1] of 12 nM. For the same compound, the IC50 [2] was 400 nM, the inhibition at 1 µM [2] was 58% and the Kb [2] was 84 nM.

O=C(c1c(-c2ccccc2F)nn2c1COCC2)N1CCC[C@H]1Cn1cc(-c2ccc(F)cn2)cn1 [Example 83] showed an inhibition at 1 µM [1] of 39% and an inhibition at 1 µM [2] of 17%.

O=C(c1c(-c2ccccc2)nc2ccc(F)cn12)N1CCC[C@H]1Cn1cc(-c2ccc(F)cn2)cn1 [Example 84] gave an IC50 [1] of 400 nM, an inhibition at 1 µM [1] of 58% and a Kb [1] of 70 nM. It also gave an inhibition at 1 µM [2] of 32%.

In the case of O=C(c1c(-c2ccccc2)nn2c1COCC2)N1CCC[C@H]1Cn1cc(-c2ccc(F)cn2)cn1 [Example 85], the inhibition at 1 µM [1] is reported as 35% and the inhibition at 1 µM [2] is reported as 19%.

Work on O=C(c1c(-c2ccccc2)nn2c1COCC2)N1CCC[C@H]1Cn1cc(-c2ccccc2)cn1 [Example 86] yielded an inhibition at 1 µM [1] of 42%, an IC50 [2] of 1300 nM and an inhibition at 1 µM [2] of 56%. For the same compound, the Kb [2] was 280 nM.

O=C(c1c(-c2ccccc2F)nn2c1COCC2)N1CCC[C@H]1Cn1ccc(-c2ccc(F)cn2)n1 [Example 91] showed an inhibition at 1 µM [1] of 38%, an IC50 [2] of 540 nM and an inhibition at 1 µM [2] of 58%. For the same compound, the Kb [2] was 110 nM.

In the case of O=C(c1c(-c2ccccc2)nn2c1COCC2)N1CCC[C@H]1Cn1ccc(-c2ccc(F)cn2)n1 [Example 93], the inhibition at 1 µM [1] is reported as 36% and the inhibition at 1 µM [2] is reported as 41%.

O=C(c1c(-c2ccccc2F)nn2c1COCC2)N1[C@H](Cn2ccc(-c3ccc(F)cc3)n2)C[C@@H]2C[C@@H]21 [Example 96] showed an inhibition at 1 µM [1] of 22% and an inhibition at 1 µM [2] of 44%.

O=C(c1c(-c2ccccc2)nc2cc(C(F)(F)F)ccn12)N1[C@H](Cn2ccc(-c3ccc(F)cc3)n2)C[C@@H]2C[C@@H]21 [Example 98] showed an inhibition at 1 µM [1] of 35% and an inhibition at 1 µM [2] of 48%.

Compound O=C(c1c(-c2ccccc2F)nn2ccccc12)N1CC[C@H]1Cn1ccc(-c2ccc(F)cc2)n1 [Example 99] has an IC50 [1] of 270 nM, an inhibition at 1 µM [1] of 61% and a Kb [1] of 46 nM. It also gave an IC50 [2] of 440 nM, an inhibition at 1 µM [2] of 59% and a Kb [2] of 92 nM.

Work on O=C(c1c(-c2ccccc2F)nn2c1COCC2)N1CC[C@H]1Cn1ccc(-c2ccc(F)cc2)n1 [Example 100] yielded an inhibition at 1 µM [1] of 19% and an inhibition at 1 µM [2] of -2%.

O=C(c1c(-c2ccccc2)nc2ccc(F)cn12)N1CC[C@H]1Cn1ccc(-c2ccc(F)cc2)n1 [Example 101] was tested, and the inhibition at 1 µM [1] was 47% and the inhibition at 1 µM [2] was 25%.

O=C(c1c(-c2ccccc2)nc2cc(C(F)(F)F)ccn12)N1CC[C@H]1Cn1ccc(-c2ccc(F)cc2)n1 [Example 102] was tested, and the IC50 [1] was 660 nM, the inhibition at 1 µM [1] was 60% and the Kb [1] was 110 nM. It also gave an inhibition at 1 µM [2] of 31%.

O=C(c1c(-c2ccccc2F)nn2ccccc12)N1CC[C@H]1Cn1ccc(-c2ccc(F)cn2)n1 [Example 103] showed an inhibition at 1 µM [1] of 43% and an inhibition at 1 µM [2] of 24%.

O=C(c1c(-c2ccccc2F)nn2c1COCC2)N1CC[C@H]1Cn1ccc(-c2ccc(F)cn2)n1 [Example 104] was tested, and the inhibition at 1 µM [1] was 14% and the inhibition at 1 µM [2] was 8%.

In the case of O=C(c1c(-c2ccccc2)nc2ccc(F)cn12)N1CC[C@H]1Cn1ccc(-c2ccc(F)cn2)n1 [Example 105], the inhibition at 1 µM [1] is reported as 29% and the inhibition at 1 µM [2] is reported as 5%.

O=C(c1c(-c2ccccc2)nc2cc(C(F)(F)F)ccn12)N1CC[C@H]1Cn1ccc(-c2ccc(F)cn2)n1 [Example 106] gave an inhibition at 1 µM [1] of 39% and an inhibition at 1 µM [2] of 19%.
